Data as given in patent publication US10265277B2, “Composition of Olivetol and method of use to reduce or inhibit the effects of tetrahydrocannabinol in the human body” (Undoo, LLC, priority 2015, dated 2019).

System: cannabis high (psychotropic effects of THC)
Assay: real-life, non-clinical trials by volunteers: oral Olivetol softgel taken at peak of cannabis high, self-reported effects
Type: in vivo, human
Settings: consumed before or after THC; general statement of the inventors
Description: A number of real-life, non-clinical trials have been performed by volunteers, to test the effects of the consumption of embodiments of the present invention, the conditions and results of which are described as follows. All tests were performed in “real life,” rather than clinical conditions. Various methods of consumption of cannabis were used, such as consumption of edibles, inhalation of cannabis smoke, or inhalation of vapor, depending upon the volunteer's preference. Some subjects reported their pre-consumption mood, pain level, etc., as well as their level of experience with consumption of cannabis. After sufficient exposure to cannabis, each subject indicated when their euphoria or “high” had reached a high level or a peak. Then, the subject took one or more oral doses of an embodiment of the present invention, containing 30 mg of Olivetol combined with edible oil in a “softgel” pill. A timer was started and the subject then reported when they felt an awareness of a decrease or reduction in their euphoria or other cannabis effects, as well as their subjective feelings, mood, pain level or other observations, until they self-reported that their cannabis effects were concluded. […]

Compound: CCCCCc1cc(O)cc(O)c1 [Olivetol, 5-pentylresorcinol]
- effect of Olivetol consumption on psychotropic effects of THC: significantly reduce the psychotropic effects of THC ingestion
